Values quoted from earlier work in US7723528B2, “Sulfur transfer reagents for oligonucleotide synthesis” (AM Chemicals LLC, priority 2008, dated 2010).

Conditions: background statement

SMILES	Hydrolytic stability
O=C1SS(=O)(=O)c2ccccc21 [Beaucage reagent, 3H-1,2-benzodithiol-3-one-1,1-dioxide]	rather low
CCOc1nc(=O)ss1 [EDITH, 3-ethoxy-1,2,4-dithiazoline-5-one]	rather low
